Laboratory results reported in patent US20160002247A1, “8-SUBSTITUTED IMIDAZOPYRIMIDINONE DERIVATIVE HAVING AUTOTAXIN INHIBITORY ACTIVITY” (THE UNIVERSITY OF TOKYO, priority 2013, published 2016).
pIC50: −log10 of the molar value.

These compounds were tested against T1, Human autotaxin enzyme (Homo sapiens, UniProt Q13822) (assay: Evaluation of autotaxin inhibitor, Method C (Test Example 3): 18:0 Lyso PC, choline assay, Resorufin fluorescence). Conditions: Assay Method C (Test Example 3), human autotaxin, 18:0 Lyso PC substrate; read-out: Inhibitory Activity (autotaxin enzyme inhibitory activity, IC50 class).
T1 construct: purchased R&D System
Assay type: biochemical
Protocol: (Method C) Evaluation of Autotaxin Inhibitor
Solution B containing 100 mM Tris-HCl buffer (pH7.5), 150 mM NaCl, 5 mM MgCl2 and 0.05% Triton X-100 was prepared. Human autotaxin enzyme (purchased from R&D System) was diluted with Solution B, and 2.5 μL of which was added to a solution of test compound in DMSO. Furthermore, 2.5 μl of 200 μM 18:0 Lyso PC (purchased from Avanti Polar Lipids) in Solution B was added and allowed to react at room temperature for 2 hours. After completion of the reaction, 15 μL of the coline assay reagent (100 mM Tris-HCl buffer (pH7.5), 5 mM MgCl2, 77 μg/mL choline oxidase, 10 μg/mL peroxidase, 25 μM 10-acetyl-3,7-dihydroxyphenoxazine and excess autotaxin inhibitor) was added and allowed to react at room temperature for 20 minutes. The fluorescent dye Resorufin, which was produced by the reaction, was detected. The fluorescence was detected using ViewLux (PerkinElmer, Inc.) with an excitation wavelength of 531 nm and a fluorescence wavelength of 598 nm.
The percent inhibition of the test compound was calculated by assuming the sample with no test compound as 0% inhibition and the sample with no enzyme as 100% inhibition, and the percent inhibitions at different concentrations of the test compound were plotted to obtain a concentration-dependent curve.

| pIC50 | Structure (SMILES) |
| --- | --- |
| 7.00 to 8.00 | CCCCCn1c(N2CC=CC2)cc(=O)n2cc(-c3ccc(Cl)cc3)nc12 [Compound 309] |
| > 8.00 | CC(C)(NC(=O)[C@@H]1C[C@@H](O)CN1c1cc(=O)n2cc(-c3ccc(Cl)cc3)nc2n1Cc1ccccc1)C(=O)O [Compound 753] |
| 6.00 to 7.00 | CCCCCn1c(N2CCC[C@H]2C(=O)NCCOCCN2C(=O)C=CC2=O)cc(=O)n2cc(-c3ccc(Cl)cc3)nc12 [Compound 668] |
| > 8.00 | CCCCCn1c(N2C[C@H](O)C[C@H]2C(=O)NCCC(=O)O)cc(=O)n2cc(-c3ccc(Cl)cc3)nc12 [Compound 581] |
| 7.00 to 8.00 | CCCCCn1c(OC[C@H]2CCCN2C(=O)OC(C)(C)C)cc(=O)n2cc(-c3ccc(Cl)cc3)nc12 [Compound 555] |
| 6.00 to 7.00 | CCn1c(N2C[C@H](O)C[C@H]2C(=O)NC(C)(C)C(=O)O)cc(=O)n2cc(-c3ccc(Cl)cc3)nc12 [Compound 765] |
| 7.00 to 8.00 | O=C(NCCN1CCOCC1)c1ccc(-c2cc(=O)n3cc(-c4ccc(Cl)cc4)nc3n2CCCC(F)(F)F)cc1 [Compound 383] |
| 7.00 to 8.00 | CCCCCn1c(N2C[C@H](O)C[C@H]2C(=O)NCCC(=O)OCC)cc(=O)n2cc(-c3ccc(Cl)cc3)nc12 [Compound 593] |
| 6.00 to 7.00 | CCCCCn1c(N2CCC[C@H]2C(=O)N[C@H]2CNC(=O)C2)cc(=O)n2cc(-c3ccc(Cl)cc3)nc12 [Compound 712] |
| > 8.00 | CCCCCn1c(N2CCC[C@H]2C(=O)NCC(C)C(=O)O)cc(=O)n2cc(-c3ccc(Cl)cc3)nc12 (some centres unmarked) [Compound 355] |
| 7.00 to 8.00 | C#CCNC(=O)c1ccc(-c2cc(=O)n3cc(-c4ccc(Cl)cc4)nc3n2CCCCC)cc1 [Compound 484] |
| 7.00 to 8.00 | CCCCCn1c(N2CCC[C@H]2C(=O)NCCCOC)cc(=O)n2cc(-c3ccc(Cl)cc3)nc12 [Compound 338] |
| 6.00 to 7.00 | CCCCCn1c(O[C@H]2C[C@H](NC(=O)OC(C)(C)C)C2)cc(=O)n2cc(-c3ccc(Cl)cc3)nc12 [Compound 552] |
| 6.00 to 7.00 | CCCCCn1c(N2CCC[C@H]2C(=O)NCCN(C)C)cc(=O)n2cc(-c3ccc(Cl)cc3)nc12 [Compound 645] |
| 7.00 to 8.00 | CCCCCn1c(C)c(CCO)c(=O)n2cc(-c3ccc(Cl)cc3)nc12 [Compound 207] |
| 6.00 to 7.00 | CCCCCn1c(C2=CCN(C(=O)OC(C)(C)C)CC2)cc(=O)n2cc(-c3ccc(Cl)cc3)nc12 [Compound 541] |
| 6.00 to 7.00 | CCCCCn1c(N2CCC(C(=O)NC)CC2)cc(=O)n2cc(-c3ccc(Cl)cc3)nc12 [Compound 295] |
| < 6.00 | CCCCCn1c(N2CC3CN(C(=O)OC(C)(C)C)CC3C2)cc(=O)n2cc(-c3ccc(Cl)cc3)nc12 (centres unmarked) [Compound 314] |
| 7.00 to 8.00 | CCCCCn1c(N2CCC[C@H]2C(=O)NCCCN2CCN(C)CC2)cc(=O)n2cc(-c3ccc(Cl)cc3)nc12 [Compound 649] |
| 7.00 to 8.00 | CCCCCn1c(-c2ccc(C(=O)N(CCO)CCO)cc2)cc(=O)n2cc(-c3ccc(Cl)cc3)nc12 [Compound 467] |
| > 8.00 | CCCCCn1c(-c2cnc(C(=O)NCCC(=O)OC)nc2)cc(=O)n2cc(-c3ccc(Cl)cc3)nc12 [Compound 534] |
| 6.00 to 7.00 | CCCCCn1c(OC2CCNCC2)cc(=O)n2cc(-c3ccc(Cl)cc3)nc12 [Compound 538] |
| 7.00 to 8.00 | CCCCCn1c(-c2ccc(C(=O)NCCN3CCSCC3)cc2)cc(=O)n2cc(-c3ccc(Cl)cc3)nc12 [Compound 515] |
| 7.00 to 8.00 | CCCCCn1c(N2CCN(C(C)=O)CC2)cc(=O)n2cc(-c3ccc(Cl)cc3)nc12 [Compound 242] |
| > 8.00 | CCCCCn1c(N2CCC[C@H]2C(=O)N[C@@H](CC2CCCCC2)C(=O)O)cc(=O)n2cc(-c3ccc(Cl)cc3)nc12 [Compound 734] |
| 7.00 to 8.00 | O=C(O)CNC(=O)[C@@H]1CCCN1c1cc(=O)n2cc(-c3ccc(Cl)cc3)nc2n1Cc1ccccc1 [Compound 744] |
| 7.00 to 8.00 | CCCCCn1c(N2CCC[C@H]2C(=O)NCCCO)cc(=O)n2cc(-c3ccc(Cl)cc3)nc12 [Compound 339] |

| pIC50 | Structure (SMILES) |
| --- | --- |
| 7.00 to 8.00 | CCCCCn1c(N2CCC3CN(C(=O)OC(C)(C)C)CC32)cc(=O)n2cc(-c3ccc(Cl)cc3)nc12 (centres unmarked) [Compound 312] |
| 7.00 to 8.00 | CCCCCn1c(N2CCN(C(=O)c3ccc(O)cc3)CC2)cc(=O)n2cc(-c3ccc(Cl)cc3)nc12 [Compound 713] |
| < 6.00 | CCCCCn1c(N2CC(C)CC(C)C2)cc(=O)n2cc(-c3ccc(Cl)cc3)nc12 (centres unmarked) [Compound 303] |
| 6.00 to 7.00 | CCCCCn1c(N2C[C@@H](F)C[C@H]2C(=O)O)cc(=O)n2cc(-c3ccc(Cl)cc3)nc12 [Compound 588] |
| > 8.00 | CCCCCn1c(N2CCN(C(=O)OC(C)(C)C)C[C@H]2C(=O)NCCC(=O)O)cc(=O)n2cc(-c3ccc(Cl)cc3)nc12 [Compound 620] |
| 7.00 to 8.00 | CCCCCn1c(-c2ccc(C(=O)NCCO)cc2)cc(=O)n2cc(-c3ccc(Cl)cc3)nc12 [Compound 390] |
| 7.00 to 8.00 | CCCCCn1c(N(CCC)C(C)=O)cc(=O)n2cc(-c3ccc(Cl)cc3)nc12 [Compound 560] |
| 6.00 to 7.00 | CCCCCn1c(N2CCC3CNCC32)cc(=O)n2cc(-c3ccc(Cl)cc3)nc12 (centres unmarked) [Compound 329] |
| 7.00 to 8.00 | CCCCCn1c(-c2ccc(C(=O)NC3(CO)CCC3)cc2)cc(=O)n2cc(-c3ccc(Cl)cc3)nc12 [Compound 497] |
| 6.00 to 7.00 | NC(=O)c1ccc(-c2cc(=O)n3cc([C@H]4CC[C@H](C(F)(F)F)CC4)nc3n2CCCC(F)(F)F)cc1 [Compound 136, 4-(5-oxo-8-(4,4,4-trifluorobutyl)-2-((1r,4r)-4-(trifluoromethyl)cyclohexyl)-5,8-dihydroimidazo[1,2-a]pyrimidine-7-yl)benzamide] |
| 7.00 to 8.00 | CCCCCn1c(-c2ccc(C(=O)NCCC(=O)N3CCOCC3)cc2)cc(=O)n2cc(-c3ccc(Cl)cc3)nc12 [Compound 517] |
| 6.00 to 7.00 | CCCCCn1c(N2CCC[C@H]2C(=O)NCCn2ccnc2)cc(=O)n2cc(-c3ccc(Cl)cc3)nc12 [Compound 342] |
| 7.00 to 8.00 | CCCCCn1c(-c2ccc(S(C)(=O)=O)cc2)cc(=O)n2cc(-c3ccc(Cl)cc3)nc12 [Compound 433] |
| 7.00 to 8.00 | CCCCCn1c(N2CCC[C@H]2C(=O)NC2(CC(=O)OC)CCOCC2)cc(=O)n2cc(-c3ccc(Cl)cc3)nc12 [Compound 347] |
| > 8.00 | CCCCCn1c(N2C[C@@H](F)C[C@H]2C(=O)NCCC(=O)O)cc(=O)n2cc(-c3ccc(Cl)cc3)nc12 [Compound 580] |
| 7.00 to 8.00 | CCCCCn1c(-c2ccc(C(=O)NCCS(C)(=O)=O)cc2)cc(=O)n2cc(-c3ccc(Cl)cc3)nc12 [Compound 494] |
| 7.00 to 8.00 | CCCCCn1c(N2CCC[C@H]2C(=O)N2CCC[C@@H](C(=O)OCC)C2)cc(=O)n2cc(-c3ccc(Cl)cc3)nc12 [Compound 688] |
| 7.00 to 8.00 | CCCCCn1c(N2CCC[C@H]2C(=O)NCCC(=O)OC)cc(=O)n2cc(-c3ccc(Cl)cc3)nc12 [Compound 340] |
| 7.00 to 8.00 | CCCCCn1c(N2CCC[C@H]2C(=O)N(C)CC(=O)OC)cc(=O)n2cc(-c3ccc(Cl)cc3)nc12 [Compound 683] |
| 6.00 to 7.00 | CCCCCn1c(N2CCCC(CN)C2)cc(=O)n2cc(-c3ccc(Cl)cc3)nc12 (centres unmarked) [Compound 328] |
| < 6.00 | CCCCCn1c(N2CCN(C(=O)OC(C)(C)C)C[C@@H]2C(=O)O)cc(=O)n2cc(-c3ccc(Cl)cc3)nc12 [Compound 640] |
| 6.00 to 7.00 | CCCCCn1c(-c2cnccc2OC)cc(=O)n2cc(-c3ccc(Cl)cc3)nc12 [Compound 455] |
| 7.00 to 8.00 | CCCCCn1c(N2CCC[C@H]2C(=O)NCCCN2CCCC2=O)cc(=O)n2cc(-c3ccc(Cl)cc3)nc12 [Compound 642] |
| 6.00 to 7.00 | CCCCCn1c(N2CCC(C(F)(F)F)C2)cc(=O)n2cc(-c3ccc(Cl)cc3)nc12 (centres unmarked) [Compound 323] |
| 6.00 to 7.00 | CCCCCn1c(-c2ccc(C(=O)OCC)cc2)cc(=O)n2cc(-c3ccc(Cl)cc3)nc12 [Compound 453] |
| 7.00 to 8.00 | CCn1c(N2C[C@H](O)C[C@H]2C(=O)N[C@@H](C)C(=O)O)cc(=O)n2cc(-c3ccc(Cl)cc3)nc12 [Compound 766] |
| 7.00 to 8.00 | CCCCCn1c(-c2ccc(C(=O)NCCc3cncn3C)cc2)cc(=O)n2cc(-c3ccc(Cl)cc3)nc12 [Compound 511] |

Same assay, conditions: Assay Method C, human autotaxin, 18:0 Lyso PC substrate; read-out: Inhibitory Activity

| pIC50 | Structure (SMILES) |
| --- | --- |
| 6.00 to 7.00 | N#CCN(CC#N)C(=O)Cc1cn(CCCC(F)(F)F)c2nc(-c3ccc(Cl)cc3)cn2c1=O [Compound 839] |
| < 6.00 | NC(=O)CNC(=O)Cc1cn(CCCC(F)(F)F)c2nc(-c3ccc(Cl)cc3)cn2c1=O [Compound 841] |
| < 6.00 | O=C(Cc1cn(CCCC(F)(F)F)c2nc(-c3ccc(Cl)cc3)cn2c1=O)N[C@@H](CO)Cc1ccccc1 [Compound 848] |
| 6.00 to 7.00 | CCCCCn1c(N2CCC[C@H](C)C2)cc(=O)n2cc(-c3ccc(Cl)cc3)nc12 [Compound 812] |
| < 6.00 | N#CNC(=O)Cc1cn(CCCC(F)(F)F)c2nc(-c3ccc(Cl)cc3)cn2c1=O [Compound 835] |
| > 8.00 | CCCCCn1c(N2CCC[C@H]2C(=O)NC(C(=O)O)C(F)(F)F)cc(=O)n2cc(-c3ccc(Cl)cc3)nc12 (some centres unmarked) [Compound 815] |
| < 6.00 | CCCCCn1c(N2CCC[C@H]2C(=O)Nc2cc(O)[nH]n2)cc(=O)n2cc(-c3ccc(Cl)cc3)nc12 [Compound 788] |

Same assay, conditions: Assay Method: Method C (Test Example 3); read-out: Inhibitory Activity (Enzyme Inhibitory Activity, IC50)

| pIC50 | Structure (SMILES) |
| --- | --- |
| < 6.00 | CCC(O)CCn1c(C)cc(=O)n2cc(-c3ccc(Cl)cc3)nc12 (centres unmarked) [Compound 47] |
